# Experimental data taken from US8957032B2, “Inhibition of gliadin peptides” (Alba Therapeutics Corporation, priority 2008, dated 2015).
# Ends that are not written are not given here. * marks the point of attachment. FITC = O=C1OC2(c3ccc(O)cc3Oc3cc(O)ccc32)c2ccc(NC(=S)*)cc21
# Legend:
# CaCO2 cell monolayer = experiment: Permeability of a CaCO2 cell monolayer to a gliadin fragment; assay type: cell-based
# Text: (§1) The inventors have discovered that peripheral blood mononuclear cells (PBMCs) secrete signals that increase epithelial monolayer permeability on response to stimulation with lipopolysaccharide […] and pepsin/trypsin treated gliadin (PTG). These secreted signals are present in PBMC culture supernatant, and they increase permeability of CaCO2 cell monolayers to Lucifer yellow when presented to the basolateral aspect of these cells. These permeability changes are inhibited by treatment of the cells with peptide permeability inhibitors of the invention (FIGS. 5A, 5B, 6A, 6B, 7A, 7B, 8A and 8B). The inventors have also discovered that specific peptides within the PTG mixture are capable of crossing epithelial cell monolayers in vitro, and that this peptide specific mechanism can be inhibited by peptide permeability inhibitors of the invention (FIGS. 3 and 4).
# intestinal tissue = conditions: ex vivo human tissue and mice; background section; cited from earlier work
# CaCO2 cells = experiment: Lucifer yellow permeability of CaCO2 cells exposed basolaterally to PBMC culture supernatants; assay type: cell-based; conditions: donors 00022, 00023, 00064, 00065; for Effect on baseline permeability to Lucifer yellow: control and untreated PBMC supernatant, measured after 72 hours; for Effect on permeability changes induced by LPS treated PBMC supernatant / Effect on permeability changes induced by PTG treated PBMC supernatant: Lucifer yellow measured after 72 hours
# Method: After formation of tight junctions CaCO2 cells were exposed basolaterally to control supernatant (control), untreated PBMC supernatant (PBMC sup), LPS treated PBMC supernatant (PBMC-LPS) and PTG treated PBMC supernatant (PBMC-PTG). Lucifer yellow permeability was measured after 72 hours (day 3).
# After formation of tight junctions CaCO2 cells were exposed basolaterally to PBMC supernatants as described above. […]
# as §1
# PBMCs = experiment: Cytokine expression in PBMCs treated with PTG or LPS (ELISA); assay type: cell-based, human; conditions: PTG 1 mg/ml or LPS 1 μg/ml
# Method: PBMCs were suspended in RPMI medium supplemented with 5% heat inactivated human AB serum, and 2×10^5 cells were plated in each well of a 96 well plate. Cells were incubated at 37° C. with PTG (1 mg/ml) or LPS (1 μg/ml) in the presence or absence of test compounds being examined for the ability to suppress cytokine production. Supernatant samples were harvested following treatment, and cytokines were assayed by ELISA (R&D Systems).
# [1] = inhibitor added apically after 48 hours (day 2)
# [2] = inhibitor added apically on day 0
substance,measurement,setting,value
"FITC-C6-PYPQPQLPY ({FITC-C6}-PYPQPQLPY) [gliadin peptide, FITC-labelled, reference compound]",Permeability of the monolayer,"CaCO2 cell monolayer; FIG. 4, apical exposure of the monolayer to the gliadin peptide",increase in permeability
GGVLVQPG [SEQ ID NO:1],Gliadin induced reduction in intestinal Rt (resistance),intestinal tissue,inhibits
same,Peak of F-actin increment induced by gliadin,intestinal tissue,blocks
same,Effect on baseline permeability to Lucifer yellow,CaCO2 cells; [1],abolished
same,Effect on baseline permeability to Lucifer yellow,CaCO2 cells; [2],abolished
same,Effect on permeability changes induced by LPS treated PBMC supernatant,CaCO2 cells; [1],significantly reduced
same,Effect on permeability changes induced by PTG treated PBMC supernatant,CaCO2 cells; [1],significantly reduced
same,Effect on permeability changes induced by LPS treated PBMC supernatant,CaCO2 cells; [2],no significant effect
same,Effect on permeability changes induced by PTG treated PBMC supernatant,CaCO2 cells; [2],no significant effect
same,"Effect on expression of IL-6, IL-8, MIP-1α and Gro-α induced by LPS and PTG",PBMCs,not reduced
same,Effect on increased expression of GM-CSF and IL-16 induced by LPS and PTG,PBMCs,inhibited
same,Effect on increase in permeability to gliadin peptide PYPQPQLPY (SEQ ID NO:163),"CaCO2 cell monolayer; FIG. 3, apical exposure to gliadin peptide, apical treatment with inhibitor",blocked
same,Effect on increase in permeability induced by gliadin peptide,"CaCO2 cell monolayer; FIG. 4, apical exposure to FITC-C6-PYPQPQLPY, 13-mer gliadin peptide SEQ ID NO:164 named in legend",blocked
"PYPQPQLPY (listed as Triticum sp.) [SEQ ID NO:163, gliadin peptide]",Permeability of the monolayer to the gliadin peptide,"CaCO2 cell monolayer; FIG. 3, apical exposure of the monolayer to the gliadin peptide",increase in permeability
